Measurements as given in ChEMBL document CHEMBL5230095, “Advances in research of spirodienone and its derivatives: Biological activities and synthesis methods” (Eur J Med Chem, 2020).
In brackets after ≈: the same amount, converted by molar mass.

What was measured:
[1] = (§1) Cytotoxicity against MDCK cells; assay type: toxicity, cell-based, Canis lupus familiaris; details: dog, MDCK cells; read-out: TC50 (the source's name)
[2] = in vitro; details: dog, MDCK cells, TI
Description: Therapeutic index, ratio of TC50 for MDCK cells to IC50 for antiviral activity against influenza A virus (A/Hanfang/359/95(H3N2))

[3] = test system: Influenza A virus; assay: microbe, parasite or virus in culture; details: H3N2, MDCK
Description: (§2) Antiviral activity against influenza A virus (A/Hanfang/359/95(H3N2)) infected in MDCK cells

[4] = test system: Enterococcus faecalis; assay: Antibacterial activity against Enterococcus faecalis; assay type: functional
[5] = test system: Staphylococcus aureus; assay: Antibacterial activity against Staphylococcus aureus; assay type: functional
[6] = test system: Streptococcus pneumoniae; assay: Antibacterial activity against Streptococcus pneumoniae; assay type: functional
[7] = test system: Plasmodium falciparum; assay: Antimalarial activity against Plasmodium falciparum 3D7; assay type: functional, organism-based
[8] = test system: Jurkat; assay: Cytotoxicity against human Jurkat cells; assay type: functional, cell-based
[9] = test system: K562; assay: Cytotoxicity against human K562 cells; assay type: functional, cell-based
[10] = Inhibition of yeast pre-mRNA splicing; parameters: species or system Saccharomyces cerevisiae
[11] = target: Neutrophil elastase (Homo sapiens, UniProt P08246); assay: Inhibition of human neutrophil elastase activity assessed as reduction in elastase release
[12] = target: DNA polymerase alpha catalytic subunit (Homo sapiens, UniProt P09884); assay: Inhibition of DNA polymerase alpha (unknown origin)
[13] = Antiinflammatory activity in human polymorphonuclear neutrophils assessed as reduction in LPS-stimulated IL-8 release; assay type: functional, Polymorphonuclear neutrophil; parameters: scale not given: the % may be the effect or the level left
[14] = Antiinflammatory activity in human polymorphonuclear neutrophils assessed as reduction in LPS-stimulated IL-1beta release; assay type: functional, Polymorphonuclear neutrophil; parameters: scale not given: the % may be the effect or the level left
[15] = Antiinflammatory activity in human polymorphonuclear neutrophils assessed as reduction in LPS-stimulated TNFalpha release; assay type: functional, Polymorphonuclear neutrophil; parameters: scale not given: the % may be the effect or the level left
[16] = test system: SF-268; assay: Antiproliferative activity against human SF-268 cells; assay type: functional, cell-based
[17] = test system: KB; assay: Antiproliferative activity against human KB cells; assay type: functional, cell-based
[18] = test system: HeLa; assay: Antiproliferative activity against human HeLa cells; assay type: functional, cell-based
[19] = test system: NCI-H460; assay: Antiproliferative activity against human NCI-H460 cells; assay type: functional, cell-based
[20] = test system: MCF7; assay: Antiproliferative activity against human MCF7 cells; assay type: functional, cell-based
[21] = test system: A549; assay: Antiproliferative activity against human A549 cells; assay type: functional, cell-based
[22] = test system: MDA-MB-231; assay: Antiproliferative activity against human MDA-MB-231 cells; assay type: functional, cell-based
[23] = test system: SW480; assay: Antiproliferative activity against human SW480 cells; assay type: functional, cell-based
[24] = test system: SMMC-7721; assay: Antiproliferative activity against human SMMC-7721 cells; assay type: functional, cell-based
[25] = test system: HL-60; assay: Antiproliferative activity against human HL-60 cells; assay type: functional, cell-based
[26] = test system: MDCK; assay: as §1; assay type: toxicity, cell-based, Canis lupus familiaris; details: dog, mdck; read-out: TC50 (the source's name)
[27] = test system: Influenza A virus; details: mdck
Description: as §2

DNA polymerase alpha catalytic subunit, sequence (P09884 whole entry): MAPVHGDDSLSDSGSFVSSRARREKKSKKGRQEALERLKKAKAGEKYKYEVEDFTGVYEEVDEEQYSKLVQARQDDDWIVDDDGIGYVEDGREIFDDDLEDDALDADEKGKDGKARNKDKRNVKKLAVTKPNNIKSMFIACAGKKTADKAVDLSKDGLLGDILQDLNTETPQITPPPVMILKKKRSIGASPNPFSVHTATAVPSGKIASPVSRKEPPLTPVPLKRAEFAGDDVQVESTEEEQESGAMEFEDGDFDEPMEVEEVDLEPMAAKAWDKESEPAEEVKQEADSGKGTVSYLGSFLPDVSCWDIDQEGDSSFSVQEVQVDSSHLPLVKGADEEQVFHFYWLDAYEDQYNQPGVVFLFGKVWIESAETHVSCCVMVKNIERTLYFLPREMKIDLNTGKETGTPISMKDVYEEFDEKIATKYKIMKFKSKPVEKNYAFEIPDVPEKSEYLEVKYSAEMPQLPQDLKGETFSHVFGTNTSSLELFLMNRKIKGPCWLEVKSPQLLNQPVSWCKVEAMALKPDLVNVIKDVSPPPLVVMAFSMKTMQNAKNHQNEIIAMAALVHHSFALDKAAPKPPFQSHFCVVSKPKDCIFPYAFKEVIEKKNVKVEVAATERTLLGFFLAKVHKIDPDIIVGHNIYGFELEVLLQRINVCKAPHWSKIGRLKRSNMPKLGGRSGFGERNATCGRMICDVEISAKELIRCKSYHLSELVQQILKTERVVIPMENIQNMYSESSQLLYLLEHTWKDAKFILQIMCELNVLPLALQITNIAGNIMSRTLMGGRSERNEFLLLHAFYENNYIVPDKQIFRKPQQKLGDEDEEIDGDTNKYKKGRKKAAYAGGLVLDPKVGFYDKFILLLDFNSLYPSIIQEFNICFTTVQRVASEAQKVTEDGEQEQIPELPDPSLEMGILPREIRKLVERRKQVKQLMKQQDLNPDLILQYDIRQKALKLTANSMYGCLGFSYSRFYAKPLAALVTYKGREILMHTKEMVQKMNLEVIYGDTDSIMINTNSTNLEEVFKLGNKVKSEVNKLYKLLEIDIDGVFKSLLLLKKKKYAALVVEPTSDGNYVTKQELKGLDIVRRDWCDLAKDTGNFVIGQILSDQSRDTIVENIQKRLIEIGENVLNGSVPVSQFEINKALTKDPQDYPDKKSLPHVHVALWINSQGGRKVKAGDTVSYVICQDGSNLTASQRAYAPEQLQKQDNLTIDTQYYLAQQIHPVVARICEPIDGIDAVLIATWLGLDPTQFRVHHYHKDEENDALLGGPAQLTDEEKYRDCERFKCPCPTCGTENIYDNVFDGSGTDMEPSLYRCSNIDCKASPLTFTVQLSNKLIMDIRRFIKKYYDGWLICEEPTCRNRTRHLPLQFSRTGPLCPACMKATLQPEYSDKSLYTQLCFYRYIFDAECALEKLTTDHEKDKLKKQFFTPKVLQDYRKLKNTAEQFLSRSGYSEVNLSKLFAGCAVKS
Neutrophil elastase, sequence (P08246 whole entry): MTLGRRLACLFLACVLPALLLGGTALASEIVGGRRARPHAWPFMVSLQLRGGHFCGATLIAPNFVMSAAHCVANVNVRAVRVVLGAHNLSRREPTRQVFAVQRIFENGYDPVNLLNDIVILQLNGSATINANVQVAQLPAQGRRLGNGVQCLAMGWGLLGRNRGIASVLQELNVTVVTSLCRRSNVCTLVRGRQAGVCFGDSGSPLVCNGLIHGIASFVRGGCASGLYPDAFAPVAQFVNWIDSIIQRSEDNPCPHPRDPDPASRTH

SMILES: CCOC(=O)C1=C[C@@H](OC(CC)CC)[C@H](NC(C)=O)[C@@H](N)C1 [OSELTAMIVIR]
- CC50 [1]: 3070 µM
- selectivity ratio [2]: 910
- IC50 [3]: 3.38 µM

SMILES: COc1cc(O)cc2c1C(=O)C(Cl)=C1O[C@@](C)(CCC=C(C)C)[C@@H]3CC(=C(C)C)C[C@@]123
- MIC [4]: > 64 µg/mL
- MIC [5]: > 64 µg/mL
- MIC [6]: > 64 µg/mL

SMILES: CCCCCCCCCCCCC/C(O)=C1\C(=O)N(Cc2ccccc2)CC12C=CC(=O)C=C2
- IC50 ([7]; Plasmodium falciparum, 3D7): 2.29 µM
- IC50 ([8]; Homo sapiens, Jurkat): 1.42 µM
- IC50 ([9]; Homo sapiens, K562): 1.73 µM

SMILES: Cc1ccc(S(=O)(=O)NC2CC3(C=CC(=O)C(NC(=O)c4ccccc4)=C3)OC2=O)cc1 (stereo unspecified)
- IC50 [10]: 700 µM

SMILES: COc1cc2c(c3c1CCC(c1ccccc1)O3)C1C3C(c4ccc(O)c(C)c4OC)C(C(O)(OC)c4ccccc4)C14C(C=CC(=O)C4OC)OC3(c1ccccc1)O2 (stereo unspecified)
- IC50 [11]: 6.53 µM

SMILES: COc1cc(O)c2c(c1)C1(C=C(OC(C)=O)C(=O)C=C1C)OC2=O (stereo unspecified)
- IC50 [12]: 28 µM

SMILES: CC(=O)NC1=CC2(C=CC1=O)CCC(=O)O2 (stereo unspecified)
- IC50 [10]: 800 µM

SMILES: COC1=CC(=O)c2ccc(=O)oc2[C@]12[C@H](C=C(C)C)C[C@]1(C)CC(C)=C[C@H](c3c(OC)cc(OC)c4ccc(=O)oc34)[C@H]1[C@@H]2c1c(OC)cc(OC)c2ccc(=O)oc12
- CC50 [1]: 57.7 µM
- selectivity ratio [2]: 3.3
- IC50 [3]: 17.5 µM

SMILES: COc1cc(OC(C)=O)c2c(c1)C1(C=C(OC(C)=O)C(=O)C=C1C)OC2=O (stereo unspecified)
- IC50 [12]: 0.68 µM

SMILES: NC(=O)c1ncn([C@@H]2O[C@H](CO)[C@@H](O)[C@H]2O)n1 [RIBAVIRIN]
- CC50 [1]: 4770 µM
- selectivity ratio [2]: 771
- IC50 [3]: 6.19 µM

SMILES: CC(C)=CCC[C@]1(C)OC2=C(Cl)C(=O)c3c(O)cc(O)cc3[C@@]23CC(=C(C)C)C[C@@H]13
- MIC [4]: 1 µg/mL (≈ 2.33 µM)
- MIC [5]: 1 µg/mL (≈ 2.33 µM)
- MIC [6]: 8 µg/mL (≈ 18.6 µM)

SMILES: C#CCCCCCCCCCCCN1C(=O)C(C2(OCC)CCC3(C=CC(=O)C=C3)O2)C12C=CC(=O)C=C2 (stereo in doubt; 31)
- IC50 [7]: 1.41 µM
- IC50 ([8]; jurkat): 0.15 µM
- IC50 ([9]; k562): 0.36 µM

SMILES: COC1=CC(=O)c2ccc(=O)oc2[C@]12[C@H](c1c(OC)cc(OC)c3ccc(=O)oc13)[C@H]1[C@H](c3c(OC)cc(OC)c4ccc(=O)oc34)C=C(C)C[C@]1(C)C[C@@H]2C=C(C)C
- CC50 [1]: 77.6 µM
- selectivity ratio [2]: 7.9
- IC50 [3]: 8.62 µM

SMILES: O=C1C=CC2(C=C1)CCc1cc(O)cc(O[C@@H]3C[C@H](CO[C@@H]4OC[C@](O)(COC(=O)/C=C/c5ccc(O)c(O)c5)[C@@H]4O)[C@@H](O)[C@H](O)[C@H]3O)c12
- Activity [13]: 28%
- Activity [14]: 90%
- Activity [15]: 20%

SMILES: O=C1C=CC(=C2C(=O)c3cc(O)cc4c3[C@@](c3ccc(O)cc3)(C(=O)O4)c3cc(O)cc(O)c32)C=C1
- IC50 [16]: > 100 µM
- IC50 [17]: > 100 µM
- IC50 [18]: > 100 µM
- IC50 [19]: > 100 µM
- IC50 [20]: 99 µM

SMILES: COC1=CC(=O)c2ccc(=O)oc2[C@@]12[C@H](c1c(OC)cc(OC)c3ccc(=O)oc13)[C@H]1[C@H](c3c(OC)cc(OC)c4ccc(=O)oc34)C=C(C)C[C@]1(C)C[C@@H]2C=C(C)C
- CC50 [1]: 19.2 µM
- selectivity ratio [2]: 1.9
- IC50 [3]: 9.86 µM

SMILES: CCCCCCCCCCCCN1C(=O)C(C2(OC)CCC3(C=CC(=O)C=C3)O2)C12C=CC(=O)C=C2 (stereo in doubt; 28)
- IC50 ([7]; Plasmodium falciparum, 3D7): 1.68 µM
- IC50 ([8]; jurkat): 0.35 µM
- IC50 ([9]; k562): 0.62 µM

SMILES: CCCCCCCCCCCCN1C(=O)C(C2(OC)CCC3(C=CC(=O)C=C3)O2)C12C=CC(=O)C=C2 (stereo in doubt; 29)
- IC50 [7]: 0.91 µM
- IC50 ([8]; jurkat): 0.06 µM
- IC50 ([9]; k562): 0.18 µM

SMILES: C/C(=C\C=C/[C@@H](C)/C=C(\C)C(=O)C1[C@@H]2[C@@H](CC(C)C)C(=O)N[C@@]23C[C@]1(O)c1cc(O)c(C)cc1C3=O)C(=O)O (stereo partly specified)
- MIC [5]: 31.2 µg/mL (≈ 58.2 µM)

SMILES: O=C1CCC2(C=CC(=O)C(NC(=O)c3ccccc3)=C2)O1 (stereo unspecified)
- IC50 [10]: 600 µM

SMILES: O=C1C=CC2(C=C1)OCC(=O)N2c1nc(-c2cccs2)nn1-c1ccccc1
- IC50 [18]: 0.0453 µM
- IC50 [21]: 0.0252 µM
- IC50 [22]: 0.0008 µM
- IC50 [20]: 0.00411 µM

SMILES: COC1=CC2(C=CC1=O)CCC(=O)O2 (stereo unspecified)
- IC50 [10]: 3000 µM

SMILES: C#CCCCCCCC(=O)C1C(=O)N(Cc2ccccc2)C12C=CC(=O)C=C2 (stereo unspecified)
- IC50 ([7]; Plasmodium falciparum, 3D7): 7.7 µM
- IC50 ([8]; Homo sapiens, Jurkat): 7.4 µM
- IC50 ([9]; Homo sapiens, K562): 15.3 µM

SMILES: COC(=O)[C@@]1(C2C=CC(=O)C=C2)c2cc(O)cc(O)c2[C@@H](c2ccc(O)cc2)C(=O)c2cc(O)cc(O)c21
- IC50 [16]: 29.2 µM
- IC50 [17]: 33.2 µM
- IC50 [18]: 25.7 µM
- IC50 [19]: 32.7 µM
- IC50 [20]: 28 µM

SMILES: C/C1=C/[C@@H](C)/C=C(\C)C(=O)[C@@H](C)[C@@H]2[C@@H](C)C(=O)N[C@@]23C[C@]24O[C@](C)(C(=O)c5c(O)c(C)cc(c52)C3=O)C14 (stereo partly specified)
- MIC [5]: 62.5 µg/mL (≈ 124 µM)

SMILES: COC1=CC(=O)c2ccc(=O)oc2[C@@]12[C@H](C=C(C)C)C[C@]1(C)CC(C)=C[C@H](c3c(OC)cc(OC)c4ccc(=O)oc34)[C@H]1[C@@H]2c1c(OC)cc(OC)c2ccc(=O)oc12
- CC50 [1]: 77.6 µM
- selectivity ratio [2]: 6.9
- IC50 [3]: 11.1 µM

SMILES: CCCCCCCCCCCCCC(=O)C1C(=O)N(Cc2ccccc2)C12C=CC(=O)C=C2 (stereo unspecified)
- IC50 ([7]; Plasmodium falciparum, 3D7): 1.35 µM
- IC50 ([8]; Homo sapiens, Jurkat): 2.88 µM
- IC50 ([9]; Homo sapiens, K562): 5.47 µM

SMILES: CC1=C/[C@@H](C)/C=C(\C)[C@]2(O)[C@H](C)[C@@H]3[C@@H](C(C)C)C(=O)N[C@]34C(=O)c3cc(C)c(O)c(c3C(=O)[C@@H]42)C(=O)\C(C)=C\1
- MIC [5]: 31.2 µg/mL (≈ 58.7 µM)

SMILES: COC1=C[C@@]23CCN(C)[C@@H](Cc4c(CN5CCc6cc(OC)c(O)cc6[C@H]5Cc5ccc(O)cc5)cc(OC)c(O)c42)C3=CC1=O
- IC50 [21]: > 40000 µM
- IC50 [23]: > 40000 µM
- IC50 [24]: > 40000 µM
- IC50 [25]: > 40000 µM

SMILES: CC(=O)NC1=CC2(C=CC1=O)CC(NS(=O)(=O)c1ccc(C)cc1)C(=O)O2 (stereo unspecified)
- IC50 [10]: 1700 µM

SMILES: O=C1C=CC2(C=C1)CCc1cc(O)cc(O[C@@H]3C[C@H](CO)[C@@H](O)[C@H](O)[C@H]3O)c12
- Activity [13]: 70%
- Activity [14]: 105%
- Activity [15]: 38%

SMILES: COC1=CC(=O)c2ccc(=O)oc2C12C(C=C(C)C)CC1(C)CC(C)=CC(c3c(OC)cc(OC)c4ccc(=O)oc34)C1C2c1c(OC)cc(OC)c2ccc(=O)oc12 (racemic; form 2)
- CC50 [26]: 25.9 µM
- IC50 [27]: 2.87 µM

SMILES: COC1=C[C@@H]2[C@@H]3Cc4c(CN5CCc6cc(OC)c(OC)c7c6[C@@H]5CC75C=CC(=O)C=C5)cc(OC)c(O)c4[C@]2(CCN3C)CC1=O
- IC50 [21]: 18500 µM
- IC50 [23]: 18300 µM
- IC50 [24]: 17100 µM
- IC50 [25]: 17400 µM

SMILES: CC(C)=CCC[C@]1(C)OC2=C(Cl)C(=O)C=C[C@@]23CC(=C(C)C)C[C@@H]13
- MIC [4]: > 64 µg/mL
- MIC [5]: > 64 µg/mL
- MIC [6]: > 64 µg/mL

SMILES: COC1=CC(=O)c2ccc(=O)oc2C12C(C=C(C)C)CC1(C)CC(C)=CC(c3c(OC)cc(OC)c4ccc(=O)oc34)C1C2c1c(OC)cc(OC)c2ccc(=O)oc12 (racemic; form 1)
- CC50 [26]: 6.42 µM
- IC50 [3]: 3.13 µM

SMILES: Cc1cc(C)c2c(c1)OCC(=O)N2c1nc(-c2ccc(Cl)cc2Cl)nn1-c1ccccc1
- IC50 [18]: 25.2 µM
- IC50 [22]: 2.85 µM

SMILES: O=c1c(O)c(-c2ccc(O)c(O)c2)oc2cc(O)cc(O)c12 [QUERCETIN]
- Activity [13]: 18%
- Activity [14]: 4%
- Activity [15]: 28%

SMILES: C#CCCCCCCCCCCCN1C(=O)C(C2(OCC)CCC3(C=CC(=O)C=C3)O2)C12C=CC(=O)C=C2 (stereo in doubt; 30)
- IC50 ([7]; Plasmodium falciparum, 3D7): 1.72 µM
- IC50 ([8]; Homo sapiens, Jurkat): 0.14 µM
- IC50 ([9]; Homo sapiens, K562): 0.32 µM
